Experimental data reported in patent US5045566A, “Novel imidate insecticides” (ICI Americas Inc., priority 1989, dated 1991).

Experiments:
Assay type in all cases: in vivo
[1] = tested on: Housefly [Musca domestica]; assay: Housefly contact mortality in dishes (HF), 48 hours; conditions: μg of test compound per 25 female flies
Summary of the method: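 Dose range started at 100 μg per 25 female flies and went downward. Insects (1-2 days old) contacted a dried acetone/peanut-oil deposit in dishes; LC50 values come from dosage-mortality curves at 48 h.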

[2] = tested on: Tobacco Budworm [Heliothis virescens (Fabricius)] eggs; assay: Tobacco budworm eggs (TBW-E); conditions: percent in solution; 2-day old eggs
Summary of the method: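 Paper-towel patches of 2-day-old eggs dipped in acetone solutions of compound (0.1% downward), held on larval rearing medium at 78° F. Mortality scored once all control eggs had hatched and larvae were feeding; LC50 from dosage-mortality curves, expressed as percent compound in solution.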

[3] = tested on: Black Bean Aphid [Aphis fabae (Scop.)]; assay: Black bean aphid spray test on nasturtium (BBA), 48 hours; conditions: percent of test compound in sprayed solution
Summary of the method: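 LC50, given as percent test compound in the sprayed liquid, was calculated from dosage-mortality curves using concentrations from 0.05% downward. Sprays in 50:50 acetone-water went to runoff on ~5 cm nasturtiums carrying 25-50 aphids of mixed ages, one day after infestation. Deaths were counted 48 h later under greenhouse conditions.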

[4] = tested on: Aster Leafhopper [Macrosteles fascifrens (Stal)]; assay: Aster leafhopper on dipped oat seedlings (LH), 48 hours; conditions: percent in solution, adults/nymphs
Procedure: The compounds in Tables 1 and 2 above were tested for insecticidal activity using the following testing procedures. LC50 values, based on the results of these tests and calculated according to dosage-mortality curves, are expressed in Table 3.
Aster Leafhopper [Macrosteles fascifrens (Stal)]
Oat seedlings (Avena sp) were grown in a commercial potting soil in cups. When the plants were approximately 10 cm tall they were thinned to three plants per cup and dipped for 2-3 seconds in 50-50 acetone-water solutions of the test compounds. When the plants had dried, a clear plastic tube was placed over them and the bottom end pressed into the cup. Ten aster leafhopper adults/nymphs were then placed in each tube and the tops of the tubes covered with white organdy cloth. Mortality counts were made after 48 hours. Test concentrations ranged from 0.05% down to that at which 50% mortality occurred. The LC50 values are expressed below in Table 3 under the heading "LH" in terms of the percent of the test compound in the solution.

[5] = tested on: Cabbage Looper [Trichoplusia ni (Hubner)]; assay: Cabbage looper leaf dip (CL), 3-5 days; conditions: percent in solution, second-instar larvae
Summary of the method: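 Squash cotyledons dipped 2-3 s in compound in 50-50 acetone-water, dried, then infested with 5 second-instar larvae and held at high humidity. Mortality scored after 3-5 days at concentrations from 0.1% downward. LC50 from dosage-mortality curves, expressed as percent compound in solution.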

[6] = tested on: Maize weevil [Sitophilus zeamais (Motschulsky)]; assay: Maize weevil on dipped corn seeds (MW), 48 hours; conditions: percent in solution, adult weevils
Summary of the method: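 LC50, given as percent of compound in dipping solution, comes from dosage-mortality curves over concentrations descending from 0.01%. Four corn seeds soaked 2-3 s in 50:50 acetone:water solution were dried and held with 10 adult weevils, about 25° C, mortality read after 48 h.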

Row | Compound | LC50 HF [1] [µg] | LC50 TBW E (eggs) [2] [%] | LC50 BBA [3] [%] | LC50 LH [4] [%] | LC50 CL [5] [%] | LC50 MW [6] [%]
1 | Cc1ccc(N=C(OCc2cccc(Oc3ccccc3)c2)C(C)C)cc1 [Compound 156] | 10 | 0.05 | 0.001 | > 0.05 | 0.004 | > 0.01
2 | COc1ccc(N=C(OCc2cccc(Oc3ccccc3)c2)C(C)C)cc1 [Compound 160] | 7 | 0.09 | 0.003 | 0.05 | 0.005 | > 0.01
3 | CC(C)C(=Nc1ccc(C#N)cc1)OCc1cccc(Oc2ccccc2)c1 [Compound 172] | 5 | 0.04 | > 0.05 | > 0.05 | 0.002 | > 0.01
4 | c1ccc(Oc2cccc(COC(=Nc3ccc4c(c3)OCO4)C3CC3)c2)cc1 [Compound 177] | 13 | > 0.1 | 0.01 | > 0.05 | 0.002 | 0.01
5 | CCC(=Nc1ccc2c(c1)OCO2)OCc1cccc(Oc2ccccc2)c1 [Compound 178, N-(3,4-Methylenedioxyphenyl)-O-(3-phenoxybenzyl)propionimidate] | 6 | > 0.1 | 0.05 | > 0.05 | 0.004 | > 0.01
6 | CC(C)C(=Nc1ccc2c(c1)OCCO2)OCc1cccc(Oc2ccccc2)c1 [Compound 179] | 13 | > 0.1 | 0.003 | 0.005 | 0.004 | > 0.01
7 | CC(C)C(=Nc1ccc(-c2ccccc2)cc1)OCc1cccc(Oc2ccccc2)c1 [Compound 186] | > 100 | > 0.1 | > 0.05 | > 0.05 | 0.008 | > 0.01
8 | CC(C)C(=Nc1ccc(F)c(Cl)c1)OCc1cccc(Oc2ccc(F)c(F)c2)c1 [Compound 217] | 8 | 0.015 | 0.001 | > 0.05 | 0.00006 | 0.0084
9 | CC(C)C(=Nc1ccc2c(c1)OCO2)OCc1cccc(Oc2ccc(Cl)cc2)c1 [Compound 240] | 14 | 0.04 | 0.001 | > 0.05 | 0.0003 | > 0.01
10 | CC(C)C(=Nc1cccc(I)c1)OCc1cccc(Oc2ccc(F)cc2)c1 [Compound 255] | 16 | 0.075 | 0.003 | 0.0005 | 0.00017 | > 0.01
11 | CSc1ccc(Oc2cccc(COC(=Nc3ccc(F)c(Cl)c3)C(C)C)c2)cc1 [Compound 256] | > 100 | 0.1 | 0.03 | > 0.05 | 0.007 | > 0.01
12 | CC(C)C(=Nc1ccc(F)cc1)OCc1cccc(Oc2ccc(Br)cc2)c1 [Compound 259] | 15 | 0.05 | 0.006 | > 0.05 | 0.0003 | > 0.01
13 | CC(C)C(=Nc1cccc([N+](=O)[O-])c1)OCc1cccc(Oc2ccc(Cl)cc2)c1 [Compound 271] | 27 | 0.1 | > 0.05 | > 0.05 | 0.0004 | > 0.01
14 | CC(C)C(=Nc1ccc(F)c([N+](=O)[O-])c1)OCc1cccc(Oc2ccccc2)c1 [Compound 293] | 19 | > 0.1 | > 0.05 | > 0.05 | 0.0045 | > 0.01
15 | CC(C)(F)C(=Nc1ccc(F)c(Cl)c1)OCc1cccc(Oc2ccc(F)cc2F)c1 [Compound 315] | > 100 | > 0.1 | > 0.05 | > 0.05 | 0.002 | > 0.01
